Columns and labels:
EED (1-441)-His protein = EED (1-441)-His protein (Homo sapiens (Human), UniProt O75530); test: EED-H3K27Me3 peptide competition binding assay by AlphaScreen; settings: read-out: (a) IC50 EED Alphascreen binding Qualified
Source text: EED-H3K27Me3 peptide competition binding assay by AlphaScreen (α-screen)

[1] = biological target: wild type PRC2 (wtPRC2) complex (Homo sapiens (Human), UniProt O75530); test: EED LC-MS assay; format: biochemical; settings: read-out: (b) IC50 EED LC-MS Qualified
Sequence of wild type PRC2 (wtPRC2) complex (O75530 whole entry): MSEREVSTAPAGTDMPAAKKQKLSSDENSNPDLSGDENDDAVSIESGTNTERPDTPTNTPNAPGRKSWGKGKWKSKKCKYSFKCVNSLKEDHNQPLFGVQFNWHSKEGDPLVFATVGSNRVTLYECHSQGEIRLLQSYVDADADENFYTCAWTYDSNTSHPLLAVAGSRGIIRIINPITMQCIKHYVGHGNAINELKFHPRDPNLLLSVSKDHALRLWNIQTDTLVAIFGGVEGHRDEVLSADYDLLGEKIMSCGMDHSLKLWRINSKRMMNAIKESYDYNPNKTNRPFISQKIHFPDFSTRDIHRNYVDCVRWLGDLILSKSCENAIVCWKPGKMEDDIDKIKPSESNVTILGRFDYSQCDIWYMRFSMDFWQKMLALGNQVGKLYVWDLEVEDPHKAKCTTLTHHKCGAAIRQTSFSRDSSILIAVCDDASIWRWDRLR
Sequence of wild type PRC2 (wtPRC2) complex (Q15910 whole entry partner): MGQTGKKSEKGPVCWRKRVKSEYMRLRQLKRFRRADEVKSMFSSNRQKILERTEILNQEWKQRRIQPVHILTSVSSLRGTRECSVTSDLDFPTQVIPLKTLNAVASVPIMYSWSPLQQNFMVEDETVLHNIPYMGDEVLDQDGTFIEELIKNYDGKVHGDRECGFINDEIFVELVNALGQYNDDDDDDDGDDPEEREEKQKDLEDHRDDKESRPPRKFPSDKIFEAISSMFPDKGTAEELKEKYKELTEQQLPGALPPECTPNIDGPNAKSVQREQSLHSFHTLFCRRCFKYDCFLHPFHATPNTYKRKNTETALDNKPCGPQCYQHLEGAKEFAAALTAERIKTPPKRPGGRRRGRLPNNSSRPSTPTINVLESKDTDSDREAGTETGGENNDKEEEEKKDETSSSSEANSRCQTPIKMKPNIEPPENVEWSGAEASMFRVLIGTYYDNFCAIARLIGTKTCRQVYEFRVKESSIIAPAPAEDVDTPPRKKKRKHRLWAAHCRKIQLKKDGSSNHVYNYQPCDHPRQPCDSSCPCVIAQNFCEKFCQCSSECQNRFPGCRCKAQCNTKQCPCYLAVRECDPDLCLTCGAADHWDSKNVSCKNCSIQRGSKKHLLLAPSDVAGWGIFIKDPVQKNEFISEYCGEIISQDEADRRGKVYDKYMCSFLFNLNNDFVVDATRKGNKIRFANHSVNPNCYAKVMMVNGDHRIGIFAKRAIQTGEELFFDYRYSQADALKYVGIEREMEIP
Sequence of wild type PRC2 (wtPRC2) complex (Q15022 whole entry partner): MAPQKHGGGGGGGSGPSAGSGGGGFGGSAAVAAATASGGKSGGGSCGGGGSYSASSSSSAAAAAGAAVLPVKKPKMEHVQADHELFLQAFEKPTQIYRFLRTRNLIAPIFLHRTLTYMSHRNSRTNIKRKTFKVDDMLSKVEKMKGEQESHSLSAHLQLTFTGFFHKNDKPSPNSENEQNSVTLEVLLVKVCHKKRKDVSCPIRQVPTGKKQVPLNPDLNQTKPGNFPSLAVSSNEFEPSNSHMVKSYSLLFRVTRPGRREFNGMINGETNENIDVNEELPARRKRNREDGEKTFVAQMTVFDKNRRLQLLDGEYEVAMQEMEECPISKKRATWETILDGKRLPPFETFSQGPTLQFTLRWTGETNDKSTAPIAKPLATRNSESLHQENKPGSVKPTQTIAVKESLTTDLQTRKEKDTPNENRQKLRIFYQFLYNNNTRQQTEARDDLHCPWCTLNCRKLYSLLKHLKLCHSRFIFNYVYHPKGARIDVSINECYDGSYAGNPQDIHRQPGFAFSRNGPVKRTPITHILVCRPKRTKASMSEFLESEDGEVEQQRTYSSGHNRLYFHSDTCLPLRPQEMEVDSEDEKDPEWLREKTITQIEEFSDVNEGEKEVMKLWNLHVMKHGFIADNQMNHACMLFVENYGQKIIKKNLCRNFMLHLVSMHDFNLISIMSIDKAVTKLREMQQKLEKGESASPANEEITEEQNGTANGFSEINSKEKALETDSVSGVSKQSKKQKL
Procedure: A 6 μL solution of 3 μM of the peptide substrate H3K27Me0 (histone H3[21-44]-biotin) in reaction buffer was added to initiate each reaction. […] ELISA (H3K27 Methylation) Assay

Sequence of EED (1-441)-His protein (O75530 whole entry): as the sequence (O75530 whole entry) above

Structure (SMILES): Fc1ccc2c(c1CNc1ncc(-c3ccc(Cl)cc3Cl)c3nncn13)CCO2 [Example 146, 8-(2,4-dichlorophenyl)-N-((5-fluoro-2,3-dihydrobenzofuran-4-yl)methyl)-[1,2,4]triazolo[4,3-c]pyrimidin-5-amine]
- IC50 (EED (1-441)-His protein): 0.023 µM
- IC50 [1]: 0.0382 µM

Structure (SMILES): Cc1nc(N)ccc1-c1cnc(NCc2c(F)ccc3c2CCO3)n2cnnc12 [Example 156, 8-(6-amino-2-methylpyridin-3-yl)-N-((5-fluoro-2,3-dihydrobenzofuran-4-yl)methyl)-[1,2,4]triazolo[4,3-c]pyrimidin-5-amine]
- IC50 (EED (1-441)-His protein): 0.004 µM
- IC50 [1]: 0.0173 µM

Structure (SMILES): COCCc1ccc(-c2cnc(NCc3cccc4c3CCO4)n3cnnc23)cn1 [Example 86, N-((2,3-dihydrobenzofuran-4-yl)methyl)-8-(6-(2-methoxyethyl)pyridin-3-yl)-[1,2,4]triazolo[4,3-c]pyrimidin-5-amine]
- IC50 (EED (1-441)-His protein): 0.0111 µM
- IC50 [1]: 0.0267 µM

Structure (SMILES): Fc1ccccc1-c1cnc(NCc2c(F)ccc3c2CCO3)n2cnnc12 [Example 94, N-((5-fluoro-2,3-dihydrobenzofuran-4-yl)methyl)-8-(2-fluorophenyl)-[1,2,4]triazolo[4,3-c]pyrimidin-5-amine]
- IC50 (EED (1-441)-His protein): 0.0113 µM
- IC50 [1]: 0.0186 µM

Structure (SMILES): Fc1ccc2c(c1CNc1ncc(-c3cnccn3)c3nncn13)CCO2 [Example 205, N-((5-fluoro-2,3-dihydrobenzofuran-4-yl)methyl)-8-(pyrazin-2-yl)-[1,2,4]triazolo[4,3-c]pyrimidin-5-amine]
- IC50 (EED (1-441)-His protein): 0.0073 µM
- IC50 [1]: 0.0082 µM

Structure (SMILES): Cc1cc(C(=O)N2CCCC2)ncc1-c1cnc(NCc2c(F)ccc3c2CCO3)n2cnnc12 [Example 130, (5-(5-(((5-fluoro-2,3-dihydrobenzofuran-4-yl)methyl)amino)-[1,2,4]triazolo[4,3-c]pyrimidin-8-yl)-4-methylpyridin-2-yl)(pyrrolidin-1-yl)methanone]
- IC50 (EED (1-441)-His protein): 0.005 µM
- IC50 [1]: 0.0137 µM

Structure (SMILES): Cc1cncc(-c2cnc(NCc3c(F)ccc4c3CCO4)n3cnnc23)c1 [Example 232, N-((5-fluoro-2,3-dihydrobenzofuran-4-yl)methyl)-8-(5-methylpyridin-3-yl)-[1,2,4]triazolo[4,3-c]pyrimidin-5-amine]
- IC50 (EED (1-441)-His protein): 0.0062 µM
- IC50 [1]: 0.0131 µM

Structure (SMILES): CN(C)c1cc(F)c(-c2cnc(NCc3cccc4c3CCO4)n3cnnc23)cn1 [Example 112, N-((2,3-dihydrobenzofuran-4-yl)methyl)-8-(6-(dimethylamino)-4-fluoropyridin-3-yl)-[1,2,4]triazolo[4,3-c]pyrimidin-5-amine]
- IC50 (EED (1-441)-His protein): 0.0177 µM
- IC50 [1]: 0.0176 µM

Structure (SMILES): COCCn1nc(C)c(-c2cnc(NCc3cccc4c3CCO4)n3cnnc23)c1C [Example 66, N-((2,3-dihydrobenzofuran-4-yl)methyl)-8-(1-(2-methoxyethyl)-3,5-dimethyl-1H-pyrazol-4-yl)-[1,2,4]triazolo[4,3-c]pyrimidin-5-amine]
- IC50 (EED (1-441)-His protein): 0.0156 µM
- IC50 [1]: 0.0447 µM

Structure (SMILES): COc1ccc(-c2cnc(NCc3cccc4c3CCO4)n3cnnc23)cn1 [Example 21, N-((2,3-dihydrobenzofuran-4-yl)methyl)-8-(6-methoxypyridin-3-yl)-[1,2,4]triazolo[4,3-c]pyrimidin-5-amine]
- IC50 (EED (1-441)-His protein): 0.0252 µM
- IC50 [1]: 0.026 µM

Structure (SMILES): CN(C)c1ccc(-c2cnc(NCc3cccc4c3CCO4)n3cnnc23)cn1 [Example 61, N-((2,3-dihydrobenzofuran-4-yl)methyl)-8-(6-(dimethylamino)pyridin-3-yl)-[1,2,4]triazolo[4,3-c]pyrimidin-5-amine]
- IC50 (EED (1-441)-His protein): 0.0129 µM
- IC50 [1]: 0.0197 µM

Structure (SMILES): CS(=O)(=O)c1ccc(-c2cnc(NCc3c(F)ccc4c3CCO4)n3cnnc23)cn1 [Example 56, N-((5-fluoro-2,3-dihydrobenzofuran-4-yl)methyl)-8-(6-(methylsulfonyl)pyridin-3-yl)-[1,2,4]triazolo[4,3-c]pyrimidin-5-amine]
- IC50 (EED (1-441)-His protein): 0.0196 µM
- IC50 [1]: 0.0309 µM

Structure (SMILES): Cc1c(-c2cnc(NCc3c(F)ccc4c3CCO4)n3cnnc23)ccnc1F [Example 180, N-((5-fluoro-2,3-dihydrobenzofuran-4-yl)methyl)-8-(2-fluoro-3-methylpyridin-4-yl)-[1,2,4]triazolo[4,3-c]pyrimidin-5-amine]
- IC50 (EED (1-441)-His protein): 0.0073 µM
- IC50 [1]: 0.0079 µM

Structure (SMILES): CN(C)C(=O)c1ccc(-c2cnc(NCc3cccc4c3CCO4)n3cnnc23)cc1 [Example 42, 4-(5-(((2,3-dihydrobenzofuran-4-yl)methyl)amino)-[1,2,4]triazolo[4,3-c]pyrimidin-8-yl)-N,N-dimethylbenzamide]
- IC50 (EED (1-441)-His protein): 0.0525 µM
- IC50 [1]: 0.0861 µM

Structure (SMILES): Cc1nn(C(C)C)cc1-c1cnc(NCc2c(F)ccc3c2CCO3)n2cnnc12 [Example 4, N-((5-Fluoro-2,3-dihydrobenzofuran-4-yl)methyl)-8-(1-isopropyl-3-methyl-1H-pyrazol-4-yl)-[1,2,4]triazolo[4,3-c]pyrimidin-5-amine]
- IC50 (EED (1-441)-His protein): 0.0032 µM
- IC50 [1]: 0.0039 µM

Structure (SMILES): c1cc(CNc2ncc(-c3cnn(C4CC4)c3)c3nncn23)c2c(c1)OCC2 [Example 149, 8-(1-cyclopropyl-1H-pyrazol-4-yl)-N-((2,3-dihydrobenzofuran-4-yl)methyl)-[1,2,4]triazolo[4,3-c]pyrimidin-5-amine]
- IC50 (EED (1-441)-His protein): 0.0169 µM
- IC50 [1]: 0.0337 µM

Structure (SMILES): CN1CCN(c2ccc(-c3cnc(NCc4cccc5occc45)n4cnnc34)cn2)CC1 [Example 211, N-(benzofuran-4-ylmethyl)-8-(6-(4-methylpiperazin-1-yl)pyridin-3-yl)-[1,2,4]triazolo[4,3-c]pyrimidin-5-amine]
- IC50 (EED (1-441)-His protein): 0.0322 µM
- IC50 [1]: 0.0288 µM

Structure (SMILES): N#Cc1ccc(-c2cnc(NCc3cccc4c3CCO4)n3cnnc23)cn1 [Example 62, 5-(5-(((2,3-dihydrobenzofuran-4-yl)methyl)amino)-[1,2,4]triazolo[4,3-c]pyrimidin-8-yl)picolinonitrile]
- IC50 (EED (1-441)-His protein): 0.016 µM
- IC50 [1]: 0.0294 µM

Structure (SMILES): Fc1ccc2c(c1CNc1ncc(-c3cnccc3C(F)(F)F)c3nncn13)CCO2 [Example 136, N-((5-fluoro-2,3-dihydrobenzofuran-4-yl)methyl)-8-(4-(trifluoromethyl)pyridin-3-yl)-[1,2,4]triazolo[4,3-c]pyrimidin-5-amine]
- IC50 (EED (1-441)-His protein): 0.0159 µM
- IC50 [1]: 0.0418 µM

Structure (SMILES): Cn1nccc1-c1cnc(NCc2c(F)ccc3c2CCO3)n2cnnc12 [Example 169, N-((5-fluoro-2,3-dihydrobenzofuran-4-yl)methyl)-8-(1-methyl-1H-pyrazol-5-yl)-[1,2,4]triazolo[4,3-c]pyrimidin-5-amine]
- IC50 (EED (1-441)-His protein): 0.0045 µM
- IC50 [1]: 0.0066 µM

Structure (SMILES): Cc1ccncc1-c1cnc(NCc2c(F)ccc3c2CCO3)n2cnnc12 [Example 118, N-((5-fluoro-2,3-dihydrobenzofuran-4-yl)methyl)-8-(4-methylpyridin-3-yl)-[1,2,4]triazolo[4,3-c]pyrimidin-5-amine]
- IC50 (EED (1-441)-His protein): 0.0101 µM
- IC50 [1]: 0.0182 µM

Structure (SMILES): FCc1ncccc1-c1cnc(NCc2c(F)ccc3c2CCO3)n2cnnc12 [Example 193, N-((5-fluoro-2,3-dihydrobenzofuran-4-yl)methyl)-8-(2-(fluoromethyl)pyridin-3-yl)-[1,2,4]triazolo[4,3-c]pyrimidin-5-amine]
- IC50 (EED (1-441)-His protein): 0.004 µM
- IC50 [1]: 0.013 µM

Structure (SMILES): COc1cc(-c2cnc(NCc3c(F)ccc4c3CCO4)n3cnnc23)ccn1 [Example 145, N-((5-fluoro-2,3-dihydrobenzofuran-4-yl)methyl)-8-(2-methoxypyridin-4-yl)-[1,2,4]triazolo[4,3-c]pyrimidin-5-amine]
- IC50 (EED (1-441)-His protein): 0.0024 µM
- IC50 [1]: 0.0118 µM

Structure (SMILES): COc1ncc(-c2cnc(NCc3cccc4c3CCO4)n3cnnc23)cn1 [Example 54, N-((2,3-dihydrobenzofuran-4-yl)methyl)-8-(2-methoxypyrimidin-5-yl)-[1,2,4]triazolo[4,3-c]pyrimidin-5-amine]
- IC50 (EED (1-441)-His protein): 0.0291 µM
- IC50 [1]: 0.0546 µM

Structure (SMILES): O=C1OCCN1c1ccc(-c2cnc(NCc3cccc4c3CCO4)n3cnnc23)cn1 [Example 117, 3-(5-(5-(((2,3-dihydrobenzofuran-4-yl)methyl)amino)-[1,2,4]triazolo[4,3-c]pyrimidin-8-yl)pyridin-2-yl)oxazolidin-2-one]
- IC50 (EED (1-441)-His protein): 0.0235 µM
- IC50 [1]: 0.0294 µM

Structure (SMILES): CN(C)Cc1ccc(-c2cnc(NCc3c(F)ccc4c3CCO4)n3cnnc23)cc1 [Example 23, 8-(4-((dimethylamino)methyl)phenyl)-N-((5-fluoro-2,3-dihydrobenzofuran-4-yl)methyl)-[1,2,4]triazolo[4,3-c]pyrimidin-5-amine]
- IC50 (EED (1-441)-His protein): 0.0311 µM
- IC50 [1]: 0.0257 µM

Structure (SMILES): Nc1cc(F)c(-c2cnc(NCc3cccc4c3CCO4)n3cnnc23)cn1 [Example 58, 8-(6-amino-4-fluoropyridin-3-yl)-N-((2,3-dihydrobenzofuran-4-yl)methyl)-[1,2,4]triazolo[4,3-c]pyrimidin-5-amine]
- IC50 (EED (1-441)-His protein): 0.0063 µM
- IC50 [1]: 0.013 µM

Structure (SMILES): CC1CN(c2ccc(-c3cnc(NCc4cccc5c4CCO5)n4cnnc34)cn2)CC(C)O1 (stereo not shown) [Example 74, N-((2,3-dihydrobenzofuran-4-yl)methyl)-8-(6-(2,6-dimethylmorpholino)pyridin-3-yl)-[1,2,4]triazolo[4,3-c]pyrimidin-5-amine]
- IC50 (EED (1-441)-His protein): 0.0896 µM
- IC50 [1]: 0.139 µM

Structure (SMILES): [O-][n+]1cccc(-c2cnc(NCc3c(F)ccc4c3CCO4)n3cnnc23)c1 [Example 10, 3-(5-(((5-fluoro-2,3-dihydrobenzofuran-4-yl)methyl)amino)-[1,2,4]triazolo[4,3-c]pyrimidin-8-yl)pyridine 1-oxide]
- IC50 (EED (1-441)-His protein): 0.0073 µM
- IC50 [1]: 0.0138 µM

Structure (SMILES): Fc1ccncc1-c1cnc(NCc2c(F)ccc3c2CCO3)n2cnnc12 [Example 47, N-((5-fluoro-2,3-dihydrobenzofuran-4-yl)methyl)-8-(4-fluoropyridin-3-yl)-[1,2,4]triazolo[4,3-c]pyrimidin-5-amine]
- IC50 (EED (1-441)-His protein): 0.0052 µM
- IC50 [1]: 0.0049 µM

Structure (SMILES): Cc1ncccc1-c1cnc(NCc2c(F)ccc3occc23)n2cnnc12 [Example 207, N-((5-fluorobenzofuran-4-yl)methyl)-8-(2-methylpyridin-3-yl)-[1,2,4]triazolo[4,3-c]pyrimidin-5-amine]
- IC50 [1]: 0.182 µM

Reference: patent US9580437B2, “Triazolopyrimidine compounds and uses thereof” (Novartis AG, priority 2014, dated 2017)
